Laboratory results from PMC8839660, “Structural Refinement of 2,4-Thiazolidinedione Derivatives as New Anticancer Agents Able to Modulate the BAG3 Protein” (Molecules, 2022).

Experiments:
[1] = system: human cervical adenocarcinoma cell line (HeLa); assay: MTT cell viability assay, HeLa; type: cell-based; settings: 48 h, 5–50 µM; for IC50: Homo sapiens, HeLa, read-out: HeLa Cell Line IC50 ± SD
Method: (§1) Firstly, the antiproliferative activity of lead compound 1, 2 and 5–9 against selected human cell lines was assessed. No effect on human PHA (Phytohaemagglutinin)-stimulated proliferating non-tumor human cell line (PMBC) has been detected for compound 1 tested at different concentrations (10–50 μM) after 72 h of exposure. In more detail, all the synthesized compounds have been tested on human melanoma cancer A375 and HeLa cancer cell lines, which are known to overexpress BAG3 protein, by an MTT cell viability assay, using different concentrations (5–50 μM). The IC50 values have been calculated after 48 h of treatment with test compounds (Table 2).
(§2) Cell lines of human cervical carcinoma (HeLa) and human malignant melanoma (A375) were cultured in Dulbecco’s modified Eagle’s medium containing 10% fetal bovine serum, supplemented with 100 U/mL each of penicillin and streptomycin, and 2 mM/L glutamine and were grown at 37 °C under 5% CO2 air humidified atmosphere.
(§3) Cell viability was evaluated using a colorimetric assay based on MTT ((3-(4,5-dimethylthiazol-2-yl)-2,5-diphenyltetrazolium bromide)) assay. Cells were grown in 96-well tissue culture plates (3,5 × 10^3 cells/well) and after 24 h, were treated with different concentrations of 1, 2 and 5–9 (50, 25, 10, and 5 µM) and incubation was performed for 48 h at 37 °C in an atmosphere containing 5% CO2. At the end of treatment, the plates were centrifuged at 1200 rpm for 5 min, the medium was removed and 100 μL of MTT (1 mg/mL) were added to each well, and cells were incubated at 37 °C for the time necessary to allow the formation of purple formazan precipitate. The solution was then removed from each well, and the formazan crystals within the cells were dissolved with 100 μL of DMSO [31]. The optical density (OD) of each well was measured with a microplate spectrophotometer (Multiskan Spectrum Thermo Electron Corporation reader) (Thermo Fisher Scientific, Rome, Italy) equipped with a 620-nm filter. Cell mortality was calculated as: % mortality = 100 − [100 × (OD treated/OD control)] [32].

[2] = system: human PHA (Phytohaemagglutinin)-stimulated proliferating non-tumor human cell line (PMBC); parameters: method as in PMID 29926854; settings: 10–50 μM, 72 h of exposure; cited from earlier work
BAG3 domain (rBAG3BD) = target: T1, BAG3 domain (rBAG3BD) (Homo sapiens, UniProt O95817); assay: SPR assay on isolated BAG3 BAG domain; settings: for rBAG3BD KD ± SD: SPR, isolated BAG domain, 25 °C, n.b. = no binding
T1 sequence (O95817 421-498 limits assumed): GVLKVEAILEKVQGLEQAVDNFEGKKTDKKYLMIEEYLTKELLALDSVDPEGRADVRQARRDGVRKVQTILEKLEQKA
Method: (§9) A surface plasmon resonance (SPR) assay [18], using a recombinant BAG3 protein, was performed and, to explore the potential selectivity of our potential binders, the affinity for BAG4—the most closely BAG3 related protein—was also evaluated. Moreover, the binding affinity towards the BAG3BD domain was also assessed.
(§10) The SPR analysis were performed on Biacore 3000^TM equipped with a research-grade CM5 sensor chip (GE Healthcare^TM, Milan, Italy). Human recombinant BAG3 (rBAG3) protein was purchased from MyBioSource© (San Diego, CA, USA), BAG3 domain (rBAG3BD) was purchased from ARETA International S.r.l. […] The proteins were coupled to the surface of a CM5 sensor chip using standard amine-coupling protocols, according to the manufacturer’s instructions. Three separates recombinant rBAG proteins surfaces and one unmodified reference surface were prepared for simultaneous analyses. rBAG proteins (BAG3 and BAG4) and rBAG3BD (100 µg mL^−1 in 10 mM CH3COONa, pH 4.5) were immobilized on the sensor chip surface at a flow rate of 5 µL min^−1 to obtain densities of 5–9 kRU. […] For each molecule, a six-point concentration series was conducted in triplicate (0-0.25-1-10-20-100 µM). SPR (Surface Plasmon Resonance) experiments were performed at 25 °C, using a flow rate of 10 µL min^−1, with 60-s monitoring of association and 300-s monitoring of dissociation. Sensorgram elaborations were performed using the BIAevaluation software (GE Healthcare^TM, Milan, Italy). provided by GE Healthcare^TM. Simple interactions were suitably fitted to a single-site bimolecular interaction model (A + B = AB), yielding a single KD.

HeLa cells = assay: Apoptosis and cell cycle analysis by PI staining and flow cytometry, HeLa; type: cell-based, human; settings: 5-10-25 μM, 48 h
Method: (§4) The cells were incubated for 48 h with 1 and 6 at concentrations 5-10-25μM.
(§5) The effect of compound 1 and 6 on cell death was analyzed by propidium iodide (PI) (Merck, Darmstadt, Germany) incorporation in permeabilized cells and flow cytometry. Briefly, cells were plated at a density of 2 × 10^4 cells/well in a 24-well plate. After 24 h, 1 and 6 (25-10-5 μM) were added for 48 h. Cells were washed twice with PBS and incubated in 500μL of a solution containing 0.1% Triton X-100, 0.1% sodium citrate, and […] propidium iodide (PI), at 4 °C for 30 min in the dark. The PI-stained cells were subsequently analyzed by flow cytometry by FACSCalibur flow cytometer (Becton Dickinson, Milan, Italy) using CellQuest software (4.0, Becton Dickinson, North Ryde, NSW, Australia). Results are expressed as the percentage of cells in the hypodiploid region. Cellular debris were excluded from the analysis by raising the forward scatter threshold and the DNA content of the nuclei was registered on a logarithmic scale. Cell cycle profiles were evaluated by DNA staining with a PI solution using a flow cytometer. Results from 5000 events per sample were collected, and the relative percentage of the cells in G0/G1, S, G2/M, and sub-G0/G1 phases of the cell cycle was determined using the ModFit LT version 3.3 analysis software (BD Biosciences, North Ryde, NSW, Australia).
Figure 4 Cell cycle analysis: (a) DNA content and (b) hypodiploid nuclei, with propidium iodide staining, were evaluated by flow cytometric assay. HeLa cells were treated with 6 (5-10-25 μM) for 48 h. Results are expressed as mean ± S.E.M. of three independent experiments each performed in duplicate. Data were analyzed by Student’s t-test. * p < 0.05 and ** p < 0.005 vs. non-treated.

A375 cells = assay: Apoptosis and cell cycle analysis by PI staining and flow cytometry, A375; type: cell-based, human; settings: 5-10-25 μM, 48 h
Method: as §4, §5
Figure 3 Cell cycle analysis: (a) DNA content and (b) hypodiploid nuclei, with propidium iodide staining, were evaluated by flow cytometric assay. A375 cells were treated respectively with 1 or 6 (both 5-10-25 μM) for 48 h. Results are expressed as mean ± S.E.M. of three independent experiments, each performed in duplicate. Data were analyzed by Student’s t-test. * p < 0.05 and ** p < 0.005 vs. non-treated.

[3] = target: Human recombinant BAG3 (rBAG3) protein full length (Homo sapiens, UniProt O95817); assay: SPR assay on recombinant full-length BAG3; settings: for rBAG3 KD ± SD: SPR, full-length protein, 25 °C, n.b. = no binding
Method: as §9, §10

A549 = system: A549; parameters: method as in PMID 29926854; settings: A549 cells; read-out: antiproliferative activity IC50, A549; cited from earlier work
[4] = system: human melanoma cell line (A375); assay: MTT cell viability assay, A375; type: cell-based; settings: 5–50 µM; for IC50: Homo sapiens, A-375, 48 h, read-out: A375 Cell Line IC50 ± SD; for A375 Cell Line IC50 ± SD: 48 h
Method: as §1, §2, §3

PC3 = system: PC3; parameters: method as in PMID 29926854; settings: PC3 cells; read-out: antiproliferative activity IC50, PC3; cited from earlier work
[5] = target: T2, human recombinant BAG4 protein (Homo sapiens, UniProt O95429); assay: SPR assay on BAG4 (selectivity); settings: 25 °C, n.b. = no binding
T2 sequence (O95429 1-457): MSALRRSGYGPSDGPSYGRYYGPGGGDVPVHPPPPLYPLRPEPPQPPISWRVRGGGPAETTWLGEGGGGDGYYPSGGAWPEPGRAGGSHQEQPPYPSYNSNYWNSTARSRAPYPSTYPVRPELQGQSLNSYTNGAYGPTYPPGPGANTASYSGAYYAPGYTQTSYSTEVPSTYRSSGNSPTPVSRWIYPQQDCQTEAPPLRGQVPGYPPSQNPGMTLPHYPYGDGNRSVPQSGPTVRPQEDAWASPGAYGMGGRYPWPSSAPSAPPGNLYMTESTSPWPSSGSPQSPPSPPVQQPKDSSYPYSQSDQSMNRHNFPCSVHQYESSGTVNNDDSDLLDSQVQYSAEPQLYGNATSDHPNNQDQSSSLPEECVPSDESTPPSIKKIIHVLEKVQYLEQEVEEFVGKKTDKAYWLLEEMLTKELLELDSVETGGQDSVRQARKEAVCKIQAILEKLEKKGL
Method: as §9, §10

BAG3 = BAG3 expression by Western blotting in HeLa cells; type: cell-based, human; settings: 5-10-25 μM, 48 h
Method: Figure 6 HeLa cells were treated with 6 (5-10-25 μM) for 48 h. BAG3 expression was detected by Western blotting. Tubulin protein expression was used as a loading control. Results are expressed as mean ± S.E.M. from at least three independent experiments each performed in duplicate. Data were analyzed by Student’s t test vs. non-treated.

caspase 3 = assay: Caspase 3 level by flow cytometry in HeLa cells; type: cell-based, human; settings: 5-10-25 μM, 48 h
Method: (§6) Furthermore, the expression of caspases, the key mediators of programmed cells death, was examined in HeLa cells after the treatment with compound 6.
(§7) Cells were plated into 12-well plated (2 × 10^4 cells/well) and after 24 h were treated with 6 (50-25-10-5 µM) for 48 h to assess caspase 3 and caspase 9 levels. Cells were collected, washed with PBS, then incubated in fixing buffer (containing 4% formaldehyde, 0.1% NaN3, and 2% FBS in PBS) for 20 min and then permeabilized with fix perm solution (fixing buffer containing 0.1% Triton X) for 30 min. Afterward, anti-caspase 3 or anti-caspase 9 antibodies were added for a further 30 min. Cells were then incubated with anti-rabbit Texas Red antibody as a secondary antibody for 1 h at 4 °C. Cell fluorescence was evaluated using a fluorescence-activated cell sorter (FACSscan; Becton Dickinson, Milan, Italy) and analyzed with the Cell Quest software (4.0, Becton Dickinson, North Ryde, NSW, Australia). Data were shown as a percentage of positive cells.
(§8) Figure 5 (a) Caspase 3 and (b) caspase 9 expressions were detected by flow cytometric analysis. HeLa cells were treated with 6 (5-10-25 μM) for 48 h. Results are expressed as mean ± S.E.M. from at least three independent experiments each performed in duplicate. Data were analyzed by Student’s t-test. *** p < 0.0001 vs. non-treated.

caspase 9 = assay: Caspase 9 level by flow cytometry in HeLa cells; type: cell-based, human; settings: 5-10-25 μM, 48 h
Method: as §6, §7, §8

Chain of Human recombinant BAG3 (rBAG3) protein full length (O95817 whole entry): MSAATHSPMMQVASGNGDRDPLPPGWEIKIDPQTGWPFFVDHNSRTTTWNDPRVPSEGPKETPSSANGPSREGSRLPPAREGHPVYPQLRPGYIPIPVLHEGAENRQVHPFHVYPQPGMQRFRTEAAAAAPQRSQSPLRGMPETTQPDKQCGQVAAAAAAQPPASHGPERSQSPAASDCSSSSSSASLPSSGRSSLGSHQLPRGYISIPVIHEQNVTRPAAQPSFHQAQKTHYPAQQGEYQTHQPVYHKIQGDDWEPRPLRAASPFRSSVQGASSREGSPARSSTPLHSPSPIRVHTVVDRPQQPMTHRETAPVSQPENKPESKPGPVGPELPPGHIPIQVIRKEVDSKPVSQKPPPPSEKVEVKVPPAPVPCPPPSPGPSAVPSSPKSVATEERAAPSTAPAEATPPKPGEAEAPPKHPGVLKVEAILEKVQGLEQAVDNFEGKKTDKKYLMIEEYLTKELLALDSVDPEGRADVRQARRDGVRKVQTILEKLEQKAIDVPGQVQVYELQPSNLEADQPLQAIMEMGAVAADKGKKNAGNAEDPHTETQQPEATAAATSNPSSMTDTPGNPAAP

IC50 [1] [µM]	Kd (BAG3 domain (rBAG3BD)) [µM]	Kd [3] [µM]	IC50 [4] [µM]	rBAG4 KD ± SD [5]	HeLa Cell Line IC50 ± SD [1]	A375 Cell Line IC50 ± SD [4]	Compound	also measured
> 50	0.0064 ± 0.0022	0.0111 ± 0.0039	15.1 ± 0.9	n.b. ^a			CCOC(=O)CN1C(=O)S/C(=C\c2ccc(O)c(O)c2)C1=O [Compound 1, reference compound]	effect on PHA-stimulated proliferating non-tumor cells [2]: No effect; cell cycle distribution (G2 phase), HeLa (HeLa cells): no evident effect; apoptotic response (hypodiploid nuclei), A375 (A375 cells): dose-dependent increase in hypodiploid nuclei; cell cycle distribution (G2 phase), A375 (A375 cells): accumulation in the G2 phase; IC50 (A549): 32.3 ± 0.9 µM; IC50 (PC3): 48.1 ± 1.5 µM
27.3 ± 1.2		0.115 ± 0.0014	> 50	n.b.			COC(=O)CN1C(=O)S/C(=C\c2ccc(O)c(O)c2)C1=O [Compound 2, (Z)-methyl 2-(5-(3,4-dihydroxybenzylidene)-2,4-dioxothiazolidin-3-yl) acetate]	rBAG3BD KD ± SD (BAG3 domain (rBAG3BD)): n.b.
							CCOC(=O)CN1C(=O)S/C(=C\c2cc(O)cc(O)c2)C1=O [Compound 3, (Z)-ethyl 2-(5-(3,5-dihydroxybenzylidene)-2,4-dioxothiazolidin-3-yl) acetate]	rBAG3 KD ± SD [3]: n.b.
							COC(=O)CN1C(=O)S/C(=C\c2cc(O)cc(O)c2)C1=O [Compound 4, (Z)-methyl 2-(5-(3,5-dihydroxybenzylidene)-2,4-dioxothiazolidin-3-yl) acetate]	rBAG3 KD ± SD [3]: n.b.
18.7 ± 0.9	0.0276 ± 0.0019	0.0063 ± 0.0003	19.4 ± 1.2	n.b.	micromolar range	micromolar range	CCOC(=O)CN1C(=O)S/C(=C\c2ccc(N(CCO)CCO)cc2)C1=O [Compound 6, (Z)-ethyl 2-(5-(4-(bis(2-hydroxyethyl)amino)benzylidene)-2,4-dioxothiazolidin-3-yl) acetate]	apoptotic response (hypodiploid nuclei), HeLa (HeLa cells): significant increase of the apoptotic response in a dose-dependent manner; cell cycle distribution (G2 phase), HeLa (HeLa cells): dose-dependent accumulation in the G2 phase; apoptotic response (hypodiploid nuclei), A375 (A375 cells): significant increase of the apoptotic response in a dose-dependent manner; cell cycle distribution (G2 phase), A375 (A375 cells): dose-dependent accumulation in the G2 phase; BAG3 expression (BAG3): expression decrease of BAG3; caspase 3 levels (caspase 3): significant and dose-dependent activation; caspase 9 levels (caspase 9): significant and dose-dependent activation
49.4 ± 1.4	0.0457 ± 0.0017	0.0531 ± 0.0091	> 50	n.b.			COC(=O)CN1C(=O)S/C(=C\c2ccc(N(CCO)CCO)cc2)C1=O [Compound 7, (Z)-methyl 2-(5-(4-(bis(2-hydroxyethyl)amino)benzylidene)-2,4-dioxothiazolidin-3-yl) acetate]	
25.9 ± 0.8		0.144 ± 0.0015	23.2 ± 1	n.b.	micromolar range	micromolar range	CCOC(=O)CN1C(=O)S/C(=C\c2ccc(-c3ccc(C#N)cc3)cn2)C1=O [Compound 8, (Z)-ethyl 2-(5-((5-(4-cyanophenyl)pyridin-2-yl)methylene)-2,4-dioxothiazolidin-3-yl) acetate]	rBAG3BD KD ± SD (BAG3 domain (rBAG3BD)): n.b.
31.3 ± 1	0.0224 ± 0.0007	0.0247 ± 0.0018	28.4 ± 0.9	n.b.	micromolar range	micromolar range	COC(=O)CN1C(=O)S/C(=C\c2ccc(-c3ccc(C#N)cc3)cn2)C1=O [Compound 9, (Z)-methyl 2-(5-((5-(4-cyanophenyl)pyridin-2-yl)methylene)-2,4-dioxothiazolidin-3-yl) acetate]	

Compound	IC50 [1] [µM]	Kd (BAG3 domain (rBAG3BD)) [µM]	Kd [3] [µM]	IC50 [4] [µM]	rBAG4 KD ± SD [5]	HeLa Cell Line IC50 ± SD [1]	A375 Cell Line IC50 ± SD [4]	also measured
O=C(CN1C(=O)S/C(=C\c2cc(O)cc(O)c2)C1=O)N1CCOCC1 [Compound 5, (Z)-5-(3,5-dihydroxybenzylidene)-3-(2-morpholino-2-oxoethyl) thiazolidine-2,4-dione]	30 ± 1.3			25.5 ± 1.1	n.b.	micromolar range	micromolar range	
